Measured values taken from patent publication US5567704A, “R-enatiomerically pure hydroxylated xanthine compounds to treat baldness” (priority 1995, dated 1996).

Test system: IL-6
Test: mouse plasma IL-6 ELISA after endotoxin
Type: in vivo
Conditions: for Plasma IL-6: LPS + CT-1501R
Experimental: For ELISA measurements of cytokine levels in plasma, blood was collected by retro-orbital or cardiac puncture of anesthetized mice, immediately centrifuged and the EDTA plasma stored at -70° C. Particulate free plasma was thawed on ice and cytokine levels determined utilizing commercial ELISA assays with normal mouse plasma used to generate standard curves. Murine tumor necrosis factor-α and interleukin-1αkits were purchased from Genzyme (Cambridge, Mass.) and Endogen (Boston, Mass.), respectively. Each data point was an average of two ELISA measurements made from EDTA […] pooled from three mice. The data summarized in Table 3 were compiled from two independent experiments; data from Table 4 and 5 were from single experiments of three mice per data point.
In particular, peak levels observed at 6, 12 and 18 hours post endotoxin were decreased 1.2, 4.3 and 3.2-fold, respectively. Finally, IL-6 measurements were made in a similar manner (Table 6, FIG. 8).

## C[C@@H](O)CCCCn1c(=O)c2c(ncn2C)n(C)c1=O [CT1501R, (R)-1-(5-hydroxyhexyl)-3,7-dimethylxanthine]
3 hours post endotoxin
  fold decrease of plasma IL-6: 1.7 fold
6 hours post endotoxin
  fold decrease of plasma IL-6: 2.0 fold
12 hours post endotoxin
  fold decrease of plasma IL-6: 4.1 fold
0 hours post LPS
  Plasma IL-6: 0 ng/mL
0.17 hours post LPS
  Plasma IL-6: 0.14 ng/mL
0.5 hours post LPS
  Plasma IL-6: 1 ng/mL
1 hour post LPS
  Plasma IL-6: 31.8 ng/mL
3 hours post LPS
  Plasma IL-6: 183 ng/mL
6 hours post LPS
  Plasma IL-6: 121 ng/mL
12 hours post LPS
  Plasma IL-6: 29.6 ng/mL
18 hours post LPS
  Plasma IL-6: 19.8 ng/mL
24 hours post LPS
  Plasma IL-6: 25.6 ng/mL
36 hours post LPS
  Plasma IL-6: 1.64 ng/mL
48 hours post LPS
  Plasma IL-6: 0.4 ng/mL
